# Earlier results as cited in patent US10174015B2, “Substituted heterocyclic derivative, preparation method and use thereof” (Xiamen University, priority 2014, dated 2019).
# Legend:
# [1] = tested on: leukocyte migration and inflammatory exudation; details: topical administration; cited from earlier work
# [2] = tested on: NAAA; details: NAAA inhibitor, literature value; cited from earlier work
smiles,measurement,setting,value
O=C(CCc1ccccc1)N[C@H]1COC1=O [S-OOPP],effect on leukocyte migration and inflammatory exudation,[1],inhibiting leukocyte migration and inflammatory exudation
same,IC50,[2],420 nM
